The text below walks through data of paper PMC4498724 (Drug Design, Development and Therapy, 2015).

One data set has as its system Wild-type HEK293 cells. The data set is described as follows: Intrinsic cytotoxicity, MTT cell-survival assay. The following applies: 72 hours of treatment. A general note: Tetrazolium dyes change colour on reduction, which living cells bring about.
A further data set deals with MRP1/ABCC1 (Homo sapiens, UniProt P33527). Kind of data set: Inhibition of MRP1-mediated calcein efflux in HEK293-ABCC1 cells. The format is cell-based. The following applies: 2 μM or 10 μM; 35 μM verapamil taken as 100%.
For data set [1], the target named is T1, ABCG2 (Homo sapiens, UniProt Q9UNQ0).
T1 sequence (Q9UNQ0 1-655): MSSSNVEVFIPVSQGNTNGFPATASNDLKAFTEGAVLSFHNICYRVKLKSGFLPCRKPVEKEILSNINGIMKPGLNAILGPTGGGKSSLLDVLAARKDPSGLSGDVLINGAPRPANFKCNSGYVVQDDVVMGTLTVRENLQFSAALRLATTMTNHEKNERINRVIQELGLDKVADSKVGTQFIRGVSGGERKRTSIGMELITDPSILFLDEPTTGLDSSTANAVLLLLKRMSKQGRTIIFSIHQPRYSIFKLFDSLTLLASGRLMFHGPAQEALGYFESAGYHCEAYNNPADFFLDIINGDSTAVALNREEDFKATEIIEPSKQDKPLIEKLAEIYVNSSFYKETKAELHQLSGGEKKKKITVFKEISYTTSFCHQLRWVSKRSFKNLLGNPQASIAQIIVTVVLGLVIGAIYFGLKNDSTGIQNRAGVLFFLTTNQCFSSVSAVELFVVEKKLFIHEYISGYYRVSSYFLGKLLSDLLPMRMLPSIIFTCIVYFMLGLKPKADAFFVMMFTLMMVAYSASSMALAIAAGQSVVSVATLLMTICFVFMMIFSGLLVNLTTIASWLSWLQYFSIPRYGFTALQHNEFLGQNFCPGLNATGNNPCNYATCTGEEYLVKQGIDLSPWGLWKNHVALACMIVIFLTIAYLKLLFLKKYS
The data set is described as follows: Inhibition of ABCG2-mediated mitoxantrone efflux in ABCG2-transfected cells. The format is cell-based.

Data set [2] deals with T1, ABCG2. The data set is described as follows: Vanadate-sensitive ATPase activity of ABCG2 in Sf9 insect cell membranes. The following applies: 2 μM compound; for Stimulation of vanadate-sensitive ABCG2 ATPase activity: basal activity without inhibitor taken as 100%.
For data set [3], the target named is T2, human CK2 holoenzyme (Homo sapiens, UniProt P68400). Kind of data set: biochemical. As to conditions: for inhibition at 10 µM: read-out: CK2 inhibition % at 10 µM.
Data set [4] concerns the target T2, human CK2 holoenzyme. The following applies: IC50 (CK2) divided by IC50 (ABCG2) of Table 1.

Molecules are shown by their SMILES.

T2 sequence (P68400 whole entry): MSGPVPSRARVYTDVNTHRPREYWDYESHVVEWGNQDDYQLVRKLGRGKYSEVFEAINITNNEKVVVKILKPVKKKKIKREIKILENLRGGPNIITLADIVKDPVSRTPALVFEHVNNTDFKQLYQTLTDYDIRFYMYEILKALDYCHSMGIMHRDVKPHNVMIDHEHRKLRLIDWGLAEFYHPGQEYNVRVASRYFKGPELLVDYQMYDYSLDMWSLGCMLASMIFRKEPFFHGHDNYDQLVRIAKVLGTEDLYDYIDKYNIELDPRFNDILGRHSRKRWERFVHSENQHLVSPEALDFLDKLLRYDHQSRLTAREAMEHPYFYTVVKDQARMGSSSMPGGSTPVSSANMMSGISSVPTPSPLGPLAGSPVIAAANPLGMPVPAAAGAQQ
T2 sequence (P67870 whole entry partner): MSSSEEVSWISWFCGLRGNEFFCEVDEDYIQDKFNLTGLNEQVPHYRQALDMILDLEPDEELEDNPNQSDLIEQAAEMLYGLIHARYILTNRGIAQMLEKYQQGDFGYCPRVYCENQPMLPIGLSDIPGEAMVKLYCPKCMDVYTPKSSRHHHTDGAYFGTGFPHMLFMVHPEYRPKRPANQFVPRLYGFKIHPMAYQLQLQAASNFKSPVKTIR
Sequence of MRP1/ABCC1 (P33527 whole entry): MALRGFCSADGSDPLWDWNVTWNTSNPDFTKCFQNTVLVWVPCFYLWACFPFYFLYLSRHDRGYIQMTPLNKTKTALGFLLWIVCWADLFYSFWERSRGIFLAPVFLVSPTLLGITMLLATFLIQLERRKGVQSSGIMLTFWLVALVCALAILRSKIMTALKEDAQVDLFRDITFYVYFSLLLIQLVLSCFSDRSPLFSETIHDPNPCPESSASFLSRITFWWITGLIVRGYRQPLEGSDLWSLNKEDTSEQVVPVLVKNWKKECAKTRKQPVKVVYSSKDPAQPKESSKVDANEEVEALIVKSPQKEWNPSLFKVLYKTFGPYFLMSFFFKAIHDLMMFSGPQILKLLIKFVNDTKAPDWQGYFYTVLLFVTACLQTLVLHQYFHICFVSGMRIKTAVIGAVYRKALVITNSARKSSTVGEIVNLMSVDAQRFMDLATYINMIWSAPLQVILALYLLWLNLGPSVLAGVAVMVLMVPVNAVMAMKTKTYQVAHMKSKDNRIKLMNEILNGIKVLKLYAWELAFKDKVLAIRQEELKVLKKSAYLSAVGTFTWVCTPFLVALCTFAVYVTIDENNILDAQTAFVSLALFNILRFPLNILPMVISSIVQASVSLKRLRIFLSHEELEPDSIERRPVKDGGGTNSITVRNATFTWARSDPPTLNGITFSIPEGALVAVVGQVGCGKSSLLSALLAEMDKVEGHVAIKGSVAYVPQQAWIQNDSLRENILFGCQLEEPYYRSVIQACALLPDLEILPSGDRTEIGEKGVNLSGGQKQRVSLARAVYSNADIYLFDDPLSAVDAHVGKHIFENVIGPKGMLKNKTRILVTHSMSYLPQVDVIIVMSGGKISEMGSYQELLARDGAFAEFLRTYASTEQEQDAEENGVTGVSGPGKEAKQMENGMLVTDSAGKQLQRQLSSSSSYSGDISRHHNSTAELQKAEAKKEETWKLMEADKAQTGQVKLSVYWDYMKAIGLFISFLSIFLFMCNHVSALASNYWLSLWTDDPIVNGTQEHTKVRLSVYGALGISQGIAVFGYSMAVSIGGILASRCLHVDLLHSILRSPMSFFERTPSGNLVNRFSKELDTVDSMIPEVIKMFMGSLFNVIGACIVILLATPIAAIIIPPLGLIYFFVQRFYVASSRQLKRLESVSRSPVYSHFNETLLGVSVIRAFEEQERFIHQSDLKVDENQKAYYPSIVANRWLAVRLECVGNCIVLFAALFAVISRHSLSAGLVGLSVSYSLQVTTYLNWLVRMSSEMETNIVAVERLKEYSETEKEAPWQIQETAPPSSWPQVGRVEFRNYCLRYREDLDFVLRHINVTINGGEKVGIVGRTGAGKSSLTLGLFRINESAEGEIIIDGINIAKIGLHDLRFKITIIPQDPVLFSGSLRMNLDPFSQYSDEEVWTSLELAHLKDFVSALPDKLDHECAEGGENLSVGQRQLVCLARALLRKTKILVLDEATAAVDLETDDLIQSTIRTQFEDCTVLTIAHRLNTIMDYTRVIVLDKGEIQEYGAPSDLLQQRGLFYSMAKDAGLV

For `Cc1cc(O)c2c3c(n(CCc4ccccc4)c2c1)-c1ccccc1C3=O` [Compound 5f, 9-Hydroxy-7-methyl-5-(2-phenylethyl)-5H-indeno[1,2-b]indole-10-one], the “Cytotoxicity IG50” value in the data set on Wild-type HEK293 cells worked out at 42.3 ± 2.8 µM. The “Inhibition of MRP1-mediated calcein efflux” value on MRP1/ABCC1 was “very limited, if any, inhibition”. At ABCG2 [1], the half-maximal inhibitory concentration (IC50) – broadly, the concentration that gives 50% inhibition – is 160 ± 10 nM. Further, on ABCG2 [2], the “Stimulation of vanadate-sensitive ABCG2 ATPase activity” value (“Stimulation” for short) is listed as 2- to 4.5 fold.
On to `O=c1cc(-c2ccccc2)c(=O)c2c1c1c(=O)c3ccccc3c1n2Cc1ccccc1` [Compound 6e, 5-Benzyl-7-phenyl-5H-indeno[1,2-b]indole-6,9,10-trione], for which the “Cytotoxicity IG50” value in the data set with Wild-type HEK293 cells came out at 7.1 ± 1.1 µM. On ABCG2 [1], this molecule registered a half-maximal inhibitory concentration (IC50) of roughly 13000 nM. Further, on ABCG2 [2], the “Effect on ABCG2 basal ATPase activity” value was “did not produce any effect”. Further, at human CK2 holoenzyme [3], the IC50 was roughly 13 µM and the inhibition (commonly the percentage by which the read-out fell short of the control) at 10 µM stood at 40%.
The like results for `O=c1ccc(=O)c2c1c1c(=O)c3ccccc3c1n2CCc1ccccc1` [Compound 6c, 5-(2-Phenylethyl)-5H-indeno[1,2-b]indole-6,9,10-trione] were, in that order, 6.9 ± 2.1 µM, roughly 30000 nM, “did not produce any effect”, roughly 13 µM and 40%.
Consider `O=c1ccc(=O)c2c1c1c(=O)c3ccccc3c1n2CCCc1ccccc1` [Compound 6d, 5-(3-Phenylpropyl)-5H-indeno[1,2-b] indole-6,9,10-trione], for which the “Cytotoxicity IG50” value in the data set with Wild-type HEK293 cells amounted to 6.8 ± 0.5 µM. The molecule also displayed a half-maximal inhibitory concentration (IC50) on ABCG2 [1] of roughly 15000 nM. For the same molecule, on human CK2 holoenzyme [3], 6.4 µM corresponded to half-maximal inhibition (IC50) and the inhibition at 10 µM came to 60%.
On to `Cc1cc(=O)c2c3c(=O)c4ccccc4c3n(CCc3ccccc3)c2c1=O` [Compound 6f, 7-Methyl-5-(2-phenylethyl)-5H-indeno[1,2-b]indole-6,9,10-trione], for which, in the data set with Wild-type HEK293 cells, the “Cytotoxicity IG50” value turned out to be 15.6 ± 5.9 µM. On MRP1/ABCC1, the “Inhibition of MRP1-mediated calcein efflux” value is “very limited, if any, inhibition”. The same molecule came in with an IC50 against ABCG2 [1] of 840 ± 310 nM. The “Effect on ABCG2 basal ATPase activity” value at ABCG2 [2] is “did not produce any effect”.
`COc1cccc(CCn2c3c(c4c(O)cccc42)C(=O)c2ccccc2-3)c1` [Compound 5i, 9-Hydroxy-5-[2-(3-methoxyphenyl)ethyl]-5H-indeno[1,2-b]indole-10-one]: in the data set with Wild-type HEK293 cells, the “Cytotoxicity IG50” value was determined as 45.7 ± 6.1 µM. Also, the IC50 against ABCG2 [1] stood at 370 ± 90 nM. Moreover, the “Stimulation” value on ABCG2 [2] was 2- to 4.5 fold. Also, on human CK2 holoenzyme [3], the IC50 was roughly 11.5 µM and the inhibition at 10 µM is 44%.
On to `O=c1cc(-c2ccccc2)c(=O)c2c1c1c(=O)c3ccccc3c1n2CCc1ccccc1` [Compound 6g, 7-Phenyl-5-(2-phenylethyl)-5H-indeno[1,2-b]indole-6,9,10-trione], for which the “Cytotoxicity IG50” value in the data set on Wild-type HEK293 cells turned out to be 3.7 ± 2.2 µM. Besides, the “Inhibition of MRP1-mediated calcein efflux” value at MRP1/ABCC1 is “very limited, if any, inhibition”. For the same molecule, on ABCG2 [1], half-maximal inhibition (IC50) required 430 ± 10 nM. Further, the “Effect on ABCG2 basal ATPase activity” value on ABCG2 [2] is given as “very limited stimulation”. Moreover, at human CK2 holoenzyme [3], the IC50 is roughly 11.5 µM and the inhibition at 10 µM amounted to 44%.
For `COc1ccc(CCn2c3c(c4c(O)cccc42)C(=O)c2ccccc2-3)cc1` [Compound 5j, 9-Hydroxy-5-[2-(4-methoxyphenyl)ethyl]-5H-indeno[1,2-b]indole-10-one], the concentration for half-maximal inhibition (IC50) at ABCG2 [1] was found to be 200 ± 10 nM. Further, at ABCG2 [2], the “Effect on ABCG2 basal ATPase activity” value is listed as “maximal stimulation” and the “Stimulation” value was 2- to 4.5 fold. This molecule showed a 50% inhibitory concentration (IC50) on human CK2 holoenzyme [3] of roughly 14 µM.
As to `O=C1c2ccccc2-c2c1c1c(O)cc(-c3ccccc3)cc1n2CCc1ccccc1` [Compound 5g, 9-Hydroxy-7-phenyl-5-(2-phenylethyl)-5H-indeno[1,2-b]indole-10-one], the 50% inhibitory concentration (IC50) at ABCG2 [1] was 510 ± 90 nM; against human CK2 holoenzyme [3], roughly 11 µM. At ABCG2 [2], the “Stimulation” value is 2- to 4.5 fold.
On to `O=C1c2ccccc2-c2c1c1c(O)cccc1n2CCCc1ccccc1` [Compound 5d, 9-Hydroxy-5-(3-phenylpropyl)-5H-indeno[1,2-b]indole-10-one], for which the IC50 at ABCG2 [1] was 640 ± 230 nM; on human CK2 holoenzyme [3] it was roughly 20 µM. Also, on ABCG2 [2], the “Stimulation” value is 2- to 4.5 fold. Moreover, at human CK2 holoenzyme [3], the inhibition at 10 µM amounted to 27%.
In the case of `O=C1c2ccccc2-c2c1c1c(O)cccc1n2CCc1ccccc1` [Compound 5c, 9-Hydroxy-5-(2-phenylethyl)-5H-indeno[1,2-b]indole-10-one], the “Cytotoxicity IG50” value in the data set on Wild-type HEK293 cells was determined as 42.7 ± 9.7 µM. Further, the “Inhibition of MRP1-mediated calcein efflux” value on MRP1/ABCC1 is “very limited, if any, inhibition”. The same molecule displayed an AGCG2/CK2 at human CK2 holoenzyme [4] of 47. Also, the half-maximal inhibitory concentration (IC50) against ABCG2 [1] came to 160 ± 20 nM; on human CK2 holoenzyme [3], 7.5 µM. The “Stimulation” value on ABCG2 [2] is 2- to 4.5 fold. Also, the inhibition at 10 µM at human CK2 holoenzyme [3] was found to be 57%.
With `COc1ccccc1CCn1c2c(c3c(O)cccc31)C(=O)c1ccccc1-2` [Compound 5h, 9-Hydroxy-5-[2-(2-methoxyphenyl)ethyl]-5H-indeno[1,2-b]indole-10-one], the “Cytotoxicity IG50” value with Wild-type HEK293 cells turned out to be 54 ± 14 µM. For the same molecule, the “Inhibition of MRP1-mediated calcein efflux” value on MRP1/ABCC1 was “very limited, if any, inhibition”. Further, the IC50 on ABCG2 [1] turned out to be 150 ± 10 nM; on human CK2 holoenzyme [3], 1.3 µM. For the same molecule, at ABCG2 [2], the “Stimulation” value is on record as 2- to 4.5 fold.
